According to patent US9617324B2, “Ameliorating agent for blood-brain barrier dysfunction” (Nagasaki University, priority 2012, dated 2017):
“Also recorded” adds a separate entry of the source. Read-outs that look alike come from different tables or passages of the source. No end group written: not given here.

Key:
[1] = tested on: proMMP-9; test: Gelatin zymography of proMMP-9 activity after retinal ischemia; format: in vivo, mouse; conditions: 1 pmol
Text: It is known that a tight junction protein, occluding, is degraded by metalloproteinases (MMP) whose expression is increased by ischemia (J Cereb Blood Flow Metab, 2007. 27(4): p. 697-709). It is believed that MMP-9, in particular, plays a primary role in a failure of a blood-organ barrier by ischemia (J Cereb Blood Flow Metab, 2000. 20(12): p. 1681-9).
The expression level of MMP-9 is commonly low and the expression is derived by various stimuli by ischemia.

[2] = tested on: thrombotic cerebral infarction PIT model
[3] = tested on: tMCAO model (ischemia for 4 hours), tPA-induced cerebral hemorrhage
Procedure: Mice were anesthetized with 3% isoflurane (Escain (registered trademark), Mylan Seiyaku Ltd., Tokyo, Japan) (Small animal anesthetizer MK-A100, Muromachi Kikai Co., Ltd., Tokyo, Japan). On a constant-temperature table at 37° C. (Ikemoto Scientific Technology Co., Ltd., Tokyo, Japan), the skin in the pharyngeal region is cut lengthwise into about 2 cm with scissors. The skin was drawn to the right using a hard silk thread (hard No. 8, Natsume Seisakusho Co., Ltd.) to secure a visual field. Using a stereoscopic microscope, the left common carotid artery which is located on the left side of the trachea is secured with a hard silk thread while exfoliating connective tissue, nerves and the like. By following the common carotid artery upward, the artery is separated into the internal carotid artery and the external carotid artery, and the external carotid artery on the left near side is tightly tied at two points with a soft silk thread and the space between the points is cut. A thin vessel extending upward from the internal carotid artery is secured with a soft silk thread. The soft silk thread and hard silk thread are strongly drawn to stop blood flow and an incision is made in the internal carotid artery with scissors. From that, an obturator is inserted 1 to 1.5 cm and the middle cerebral artery is occluded. The internal carotid artery was tied together with the obturator using a soft silk thread to fix the obturator. A soft silk thread is passed under the hard silk thread drawing and the common carotid artery is tied thereby on the near side of the hard silk thread, and the hard silk thread is then removed. The breath is sutured at two points with a soft silk thread. In the case of the model of transient middle cerebral artery occlusion (tMCAO) of the present problem, anesthesia was applied to the mice with 3% isoflurane again after an hour or 4 hours on a constant-temperature table at 37° C., and the soft silk thread suturing the breath is untied to open the breath. The soft silk thread tying the internal carotid artery was loosened and the obturator was withdrawn, and the internal carotid artery was immediately tied again.

[4] = tested on: tMCAO model (ischemia for 4 hours), tPA-induced motor dysfunction; test: tMCAO for four hours with tPA: clinical score and mortality after a day; format: in vivo, mouse; conditions: for death of mice: 10 mg/kg peptide with tPA after 4 hours of tMCAO ischemia
Procedure: After tMCAO for four hours, the clinical score and mortality rate were evaluated after a day (FIG. 8). […] The tMCAO for four hours corresponds to the state after 3 hours from the onset of ischemic diseases.
(§1) To evaluate the degree of motor function disorders associated with cerebral ischemia, the neurological scores (Clinical Scores) according to the following definition were used. In addition, two grade evaluation was carried out using numerical values 1 to 4 (when scores 1 and 2 were shown, 1.5 was used).
(§2) 1: motor function disorders of the right front limb, 2: one-directional behavior, 3: unable to hold the position and incline, 4: disappearance of spontaneous movement, and 5: death.

[5] = tested on: thrombotic cerebral infarction PIT model; test: PIT model: damaged cerebral region by TTC staining; format: in vivo, mouse; conditions: for damaged cerebral region by TTC staining: second Example 13
[6] = tested on: model mice of cerebral ischemia (tMCAO); test: tMCAO (ischemia for an hour, reperfusion) model, clinical scores of motor dysfunction; format: in vivo, mouse; conditions: for protective effect on motor dysfunction: i.v. after an hour after ischemia, 1 to 10 mg/kg
Procedure: The model mice of cerebral ischemia produced by left middle cerebral artery occlusion in C57BL/J6 mice were maintained for an hour, followed by reperfusion. P30 (1 mg/kg or 3 mg/kg) or P6 (1 mg/kg) was administered into the caudal vein after an hour of reperfusion. Thereafter, the course of the mice was observed every 24 hours to evaluate motor function and existence. The clinical scores showing motor dysfunction are evaluated using the following five grades: 1: unable to completely extend the right front limb, 2: clockwise circling behavior, 3: unable to hold the position and incline to the right, 4: disappearance of spontaneous movement, and 5: death.
In FIG. 5, the data indicated by white squire indicate values when 0.1% DMSO in PBS (vehicle) was administered into the caudal vein in an amount of 100 μl/10 g after an hour of tMCAO for an hour. […] Black circle and black rhombus in the upper graph indicate the results of 1 mg/kg and 3 mg/kg P30 intravenous (i.v.) administration, respectively, and black circle in the lower graph indicates the results of 1 mg/kg P6 intravenous (i.v.) administration.
as §1, §2

[7] = second Example 13, peptide in combination with tPA, peptide dose not given
[8] = peptide in combination with tPA, peptide dose not given

For “Ac-NEVDEE-NH2 [Peptide F, N-acetyl-P6-amide]”, the “increase in activity of proMMP-9 by ischemia” value [1] was “effect equal to that of P6” and the Clinical score [2, 7] was 1.2±0.2.

In the case of NEVDEE [Peptide P6, NEVDEE], the cerebral hemorrhage ([3]; mouse, in vivo) is reported as “trend to exacerbate cerebral hemorrhage”.

In the case of NEVDEE-NH2 [Peptide E, NEVDEE-NH2], the death of mice [4] is reported as “all mice were died”.

For NEVDQE [Peptide A, NEVDQE], the “hemorrhage in the cerebral cortex region” value ([3]; mouse, in vivo, iv, 1 mg/kg) was 0.09±0.01 mm^2, the “hemorrhage in the cerebral cortex region” value ([3]; mouse, in vivo, iv, 3 mg/kg) was 0.06±0.01 mm^2 and the “hemorrhage in the cerebral cortex region” value ([3]; mouse, in vivo, iv, 10 mg/kg) was 0.08±0.01 mm^2.

“Peptide L: P6 derivative peptide (NEIDEE)” was tested, and the “damaged cerebral region by TTC staining” value [5, 8] was 46±5.6% and the Clinical score [2, 7] was 1.3±0.2.

“Peptide P: P6 derivative peptide (EEVNEE)” was tested, and the “damaged cerebral region by TTC staining” value [5, 8] was 47±5.1% and the Clinical score [2, 7] was 1.1±0.1.

For “Peptide Q: P6 derivative peptide (EEVDQE)”, the “damaged cerebral region by TTC staining” value [5, 8] was 55±1.4% and the Clinical score [2, 7] was 1.7±0.5.

“Peptide R: P6 derivative peptide (EEVDQE)” was tested, and the “damaged cerebral region by TTC staining” value [5, 8] was 54±4.5% and the Clinical score [2, 7] was 1.1±0.1.

In the case of “Peptide S: P6 derivative peptide (EEVDEE)”, the “damaged cerebral region by TTC staining” value [5, 8] is reported as 51±5.7% and the Clinical score [2, 7] is reported as 1.1±0.2.

In the case of “pEEVDEE (not fully specified (residue 1); listed as Homo sapiens) [Peptide D]”, the “protective effect on motor dysfunction” value [6] is reported as “not as good as that of Peptide A and Peptide B”, the death of mice [4] is reported as “all mice were died” and the “damaged cerebral region by TTC staining” value [5, 8] is reported as 52±7.2%. The Clinical score [2, 7] was 1±0.

With “pEEVNEE (not fully specified (residue 1); listed as Homo sapiens) [Peptide B]” the “protective effect on motor dysfunction” value [6] was “dose-dependently protective effect on motor dysfunction; also recorded: high protective activity”, the “dose showing the (greatest) protective effect on motor dysfunction” value ([6]; i.v., tMCAO 60 min ischemia) was 10 mg/kg and the “tPA-induced exacerbation of motor dysfunction” value ([4]; 10 mg/kg peptide coadministered i.v. with tPA, 24 hours after ischemia) was “tended to inhibit”. The “damaged cerebral region by TTC staining” value [5, 8] was 42±6.1%, the tPA-induced cerebral hemorrhage ([3]; 10 mg/kg peptide coadministered with tPA) was “did not have an influence” and the Clinical score [2, 7] was 1±0.

For “tPA: thrombolytic agent, tissue plasminogen activator, purchased from Kyowa Hakko Kirin Co., Ltd. [reference compound]”, the “mortality rate after a day of ischemia” value ([4]; 10 mg/kg tPA alone) was 35.7%, the “motor dysfunction (clinical score) after a day” value ([4]; 10 mg/kg tPA alone, immediately before reperfusion) was “deteriorated” and the “motor dysfunction score after a day” value ([4]; 10 mg/kg tPA treatment, tMCAO ischemia for 4 hours, score 2 without tPA) was 3.5. For the same substance, the “damaged cerebral region by TTC staining” value ([5]; tPA alone after 6 hours of PIT treatment) was 44±2.6%, the “protective effect (infarct region)” value ([5]; tPA administered after 6 hours of ischemia) was “the protective effect was not confirmed” and the infarct region ([5]; tPA treatment after an hour after thrombus formation) was “significant decrease in the infarct region”. For the same substance, the “protective effect (infarct region)” value ([5]; tPA treatment time delayed (2 to 4 hours)) was “protective effect was reduced”, the hemorrhagic region ([3]; mouse, in vivo, iv, 10 mg/kg) was 0.7±0.2 mm^2 and the Clinical score ([2]; Example 12, tPA-alone after 6 hours of PIT treatment) was 1.5±0.2. The Clinical score ([2]; second Example 13, tPA alone after 6 hours of PIT treatment) was 1.4±0.1.
